Reference: US9409915B2, “Substituted aza-bicyclic imidazole derivatives useful as TRPM8 receptor modulators” (Janssen Pharmaceutica NV, priority 2010, dated 2016)
Structures can show the parent of a compound that is named as a salt. Where two headings read alike, the source gives them in different places.

What was measured:
canine TRPM8 = canine TRPM8 (Canis lupus familiaris, UniProt Q1A7N1); assay: In vitro canine TRPM8 functional assay (Ca2+-sensitive fluorescent dye, icilin activation); type: cell-based
Male Sprague Dawley rats = assay: Inhibition of icilin-induced "wet-dog" shakes in rats; type: in vivo; conditions: 10 mg/kg p.o. in 10% HP-β-CD, 60 min before icilin 3.0 mg/kg i.p.; rat wet-dog shakes
Experimental: Male Sprague Dawley rats (220-450 g, Charles River Labs, n=6-9/treatment) were used to evaluate the ability of test compounds to block icilin-induced “wet-dog” shakes (WDS). The test compound was administered in 10% hydroxypropyl-β-cyclodextrin (HP-β-CD), p.o., 60 min before icilin. Icilin was then administered in 10% solutol/H2O, at 3.0 mg/kg, i.p., and spontaneous “wet-dog” shakes were counted 10 min following the icilin injection over a 10-min period.

[1] = 0.2 μM compound, HEK293 cells stably expressing canine TRPM8, icilin-induced Ca2+ response
[2] = HEK293 cells stably expressing canine TRPM8, icilin-induced Ca2+ response, eight-point concentration-response
[3] = HEK293, 0.2 μM compound, HEK293 cells stably expressing canine TRPM8, icilin-induced Ca2+ response

Sequence of canine TRPM8 (Q1A7N1 1-1104): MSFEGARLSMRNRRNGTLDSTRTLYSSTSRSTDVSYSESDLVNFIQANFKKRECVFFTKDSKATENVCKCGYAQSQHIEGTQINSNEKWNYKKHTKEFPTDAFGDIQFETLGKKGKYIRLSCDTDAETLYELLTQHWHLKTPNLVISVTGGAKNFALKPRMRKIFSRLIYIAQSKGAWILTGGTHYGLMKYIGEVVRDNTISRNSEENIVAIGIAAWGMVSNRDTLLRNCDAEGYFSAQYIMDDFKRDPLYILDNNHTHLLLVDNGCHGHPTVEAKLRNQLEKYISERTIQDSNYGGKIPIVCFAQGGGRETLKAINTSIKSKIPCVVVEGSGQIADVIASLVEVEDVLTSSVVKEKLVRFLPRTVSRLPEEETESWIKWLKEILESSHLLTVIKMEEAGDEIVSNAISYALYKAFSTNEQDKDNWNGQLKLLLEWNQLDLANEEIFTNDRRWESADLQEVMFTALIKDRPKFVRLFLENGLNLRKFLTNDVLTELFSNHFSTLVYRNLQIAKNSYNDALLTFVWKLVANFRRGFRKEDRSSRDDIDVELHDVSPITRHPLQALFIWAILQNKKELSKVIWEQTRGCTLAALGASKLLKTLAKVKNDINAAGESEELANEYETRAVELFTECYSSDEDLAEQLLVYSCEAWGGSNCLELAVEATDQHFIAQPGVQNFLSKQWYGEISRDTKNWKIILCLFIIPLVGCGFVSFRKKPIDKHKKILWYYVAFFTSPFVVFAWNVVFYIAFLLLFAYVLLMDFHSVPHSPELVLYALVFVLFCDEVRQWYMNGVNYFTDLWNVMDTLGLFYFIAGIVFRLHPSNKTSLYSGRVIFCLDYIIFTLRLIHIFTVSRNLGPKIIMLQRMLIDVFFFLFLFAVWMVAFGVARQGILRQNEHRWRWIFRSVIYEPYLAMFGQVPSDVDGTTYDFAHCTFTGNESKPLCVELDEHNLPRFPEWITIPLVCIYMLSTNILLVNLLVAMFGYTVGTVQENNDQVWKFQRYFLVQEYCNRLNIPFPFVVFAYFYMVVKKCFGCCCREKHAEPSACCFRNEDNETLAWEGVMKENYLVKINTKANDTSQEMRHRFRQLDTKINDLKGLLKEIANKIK

Compound	inhibition at 0.2 µM (canine TRPM8; [1]) [%]	IC50 (canine TRPM8; [2]) [µM]	also measured
COc1nc(-c2ccccc2Cl)cc2nc(-c3c(C#N)c(C(C)(C)C)nn3C)[nH]c12.CS(=O)(=O)O [Compound 17, 3-tert-Butyl-5-[6-(2-chloro-phenyl)-4-methoxy-3H-imidazo[4,5-c]pyridine-2-yl]-1-methyl-1H-pyrazole-4-carbonitrile methanesulfonic acid salt]	99	0.0017	Icilin % Inhibition @ 1.5 h, 10 mg/kg (Male Sprague Dawley rats): 38%
Cl.Cn1nc(C(C)(C)C)cc1-c1nc2cc(-c3ccccc3C(F)(F)F)ncc2[nH]1 [Compound 40, 2-(5-tert-Butyl-2-methyl-2H-pyrazol-3-yl)-6-(2-trifluoromethyl-phenyl)-3H-imidazo[4,5c]pyridine hydrochloride]	–	–	% Inh @ 0.2 μM (canine TRPM8): 86%; IC50 (canine TRPM8): 0.059 µM
COc1nc(-c2ccccc2OC(F)(F)F)cc2nc(-c3c(Cl)c(C(C)(C)C)nn3C)[nH]c12 [Compound 2, 2-(5-tert-Butyl-4-chloro-2-methyl-2H-pyrazol-3-yl)-4-methoxy-6-(2-trifluoromethoxy-phenyl)-3H-imidazo[4,5-c]pyridine sodium salt]	100	0.013	–
COCCOc1nc(-c2ccccc2C(F)(F)F)cc2nc(-c3c(C#N)c(C(C)(C)C)nn3C)[nH]c12 [Compound 21, 3-tert-Butyl-5-[4-(2-methoxy-ethoxy)-6-(2-trifluoromethyl-phenyl)-3H-imidazo[4,5-c]pyridine-2-yl]-1-methyl-1H-pyrazole-4-carbonitrile benzenesulfonic acid salt]	99	0.00069	–
CN1CCN(CCOc2nc(-c3ccccc3C(F)(F)F)cc3nc(-c4c(Cl)c(C(C)(C)C)nn4C)[nH]c23)CC1 [Compound 50, 2-(5-tert-Butyl-4-chloro-2-methyl-2H-pyrazol-3-yl)-4-[2-(4-methyl-piperazin-1-yl)-ethoxy]-6-(2-trifluoromethyl-phenyl)-3H-imidazo[4,5-c]pyridine]	91	0.056	–
COCCOc1cc(-c2ccccc2C(F)(F)F)nc2nc(-c3cc(C(C)(C)C)nn3C)[nH]c12 [Compound 112, 2-(5-tert-Butyl-2-methyl-2H-pyrazol-3-yl)-7-(2-methoxy-ethoxy)-5-(2-trifluoromethyl-phenyl)-1H-imidazo[4,5-b]pyridine methanesulfonic acid salt]	98	0.019	–
CN1CCN(CCOc2nc(-c3ccccc3Cl)cc3nc(-c4c(Cl)c(C(C)(C)C)nn4C)[nH]c23)CC1 [Compound 55, 2-(5-tert-Butyl-4-chloro-2-methyl-2H-pyrazol-3-yl)-6-(2-chloro-phenyl)-4-[2-(4-methyl-piperazin-1-yl)-ethoxy]-3H-imidazo[4,5-c]pyridine]	–	0.054	inhibition at 0.2 µM (canine TRPM8; [3]): 95%
Cn1nc(C(C)(C)C)c(Cl)c1-c1nc2nc(-c3ccccc3OC(F)(F)F)ccc2[nH]1 [Compound 25, 2-(5-tert-Butyl-4-chloro-2-methyl-2H-pyrazol-3-yl)-5-(2-trifluoromethoxy-phenyl)-1H-imidazo[4,5-b]pyridine hydrochloride]	–	0.012	inhibition at 0.2 µM (canine TRPM8; [3]): 100%
COc1nc(-c2ccccc2C(F)(F)F)cc2nc(-c3c(Cl)c(C(C)(C)C)nn3C)[nH]c12 [Compound 9, 2-(5-tert-Butyl-4-chloro-2-methyl-2H-pyrazol-3-yl)-4-methoxy-6-(2-trifluoromethyl-phenyl)-3H-imidazo[4,5-c]pyridine methanesulfonic acid salt, hydrochloride]	100	–	–
COc1nc(-c2ccccc2Cl)cc2nc(-c3nc(C(C)(C)C)cn3C)[nH]c12 [Compound 111, 2-(4-tert-Butyl-1-methyl-1H-imidazol-2-yl)-6-(2-chloro-phenyl)-4-methoxy-3H-imidazo[4,5-c]pyridine]	62	–	–
Cn1nc(C(C)(C)C)c(C#N)c1-c1nc2cc(-c3ccccc3C(F)(F)F)nc(OCC(=O)O)c2[nH]1 [Compound 86, [2-(5-tert-Butyl-4-cyano-2-methyl-2H-pyrazol-3-yl)-6-(2-trifluoromethyl-phenyl)-3H-imidazo[4,5-c]pyridin-4-yloxy]-acetic acid]	49	–	–
